# Measured values taken from ChEMBL document CHEMBL1138010, “Discovery of highly potent, selective, orally bioavailable, metabotropic glutamate subtype 5 (mGlu5) receptor antagonists devoid of cytochrome P450 1A2 inhibitory activity” (Bioorg Med Chem Lett, 2004).
# Legend:
# [1] = molecular target: Metabotropic glutamate receptor 5 (Rattus norvegicus, UniProt P31424); experiment: Binding affinity towards Metabotropic glutamate receptor was determined by displacing [3H]3-methoxy-5-(pyridin-2-ylethynyl)pyridine from rat cortical membranes
# [2] = molecular target: Metabotropic glutamate receptor 5 (Rattus norvegicus) (UniProt P31424); experiment: Antagonistic activity against Metabotropic glutamate receptor 5 in [Ca2+] flux assay using glutamate (10 uM) as agonist; type: functional
# [3] = molecular target: Metabotropic glutamate receptor 5 (Rattus norvegicus) (UniProt P31424); experiment: Percent occupancy of the Metabotropic glutamate receptor 5 by the [3H]3-methoxy-5-(pyridin-2-ylethynyl)pyridine ligand 1 hr post-administration of 10 mg/kg compound ip; type: organism-based; set-up: dose 10 mg/kg
# [4] = molecular target: T1, Cytochrome P450 1A2 (Homo sapiens, UniProt P05177); experiment: Antagonistic activity against recombinant cytochrome P450 1A2; type: ADME; details: recombinant enzyme
# T1 sequence (P05177 whole entry): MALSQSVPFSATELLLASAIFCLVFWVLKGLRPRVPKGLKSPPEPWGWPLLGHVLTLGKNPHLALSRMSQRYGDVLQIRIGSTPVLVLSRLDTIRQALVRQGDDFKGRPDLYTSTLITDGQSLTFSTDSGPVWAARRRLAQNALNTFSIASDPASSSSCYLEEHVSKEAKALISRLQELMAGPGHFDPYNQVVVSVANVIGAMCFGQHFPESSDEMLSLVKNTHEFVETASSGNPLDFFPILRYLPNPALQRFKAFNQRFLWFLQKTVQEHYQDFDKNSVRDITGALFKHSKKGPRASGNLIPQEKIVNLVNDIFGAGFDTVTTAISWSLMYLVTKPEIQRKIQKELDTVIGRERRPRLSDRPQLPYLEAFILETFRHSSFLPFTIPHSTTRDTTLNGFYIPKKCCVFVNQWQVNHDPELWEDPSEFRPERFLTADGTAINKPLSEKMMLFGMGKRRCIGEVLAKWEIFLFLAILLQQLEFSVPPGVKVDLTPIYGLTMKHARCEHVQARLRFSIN
# [5] = molecular target: Cytochrome P450 3A4 (Homo sapiens, UniProt P08684); experiment: Antagonistic activity against recombinant cytochrome P450 3A4; type: ADME; details: recombinant enzyme
# [6] = Oral bioavailability; type: ADME, organism-based; details: rat, in vivo
# [7] = Volume of distribution was determined; type: ADME, organism-based; details: rat, in vivo
# [8] = Area under the curve was determined; type: ADME; details: rat
# [9] = Plasma clearance was determined; type: ADME, organism-based; details: rat
# [10] = molecular target: Cytochrome P450 2D6 (Homo sapiens, UniProt P10635); experiment: Antagonistic activity against recombinant cytochrome P450 2D6; type: ADME; details: recombinant enzyme
# [11] = molecular target: Cytochrome P450 2C19 (Homo sapiens, UniProt P33261); experiment: Antagonistic activity against recombinant cytochrome P450 2C19; type: ADME; details: recombinant enzyme
# [12] = system: Rattus norvegicus; experiment: Concentration in rat brain measured at 1 hr post-administration of 10 mg/kg ip; type: functional, organism-based; set-up: dose 10 mg/kg
# [13] = Half life was determined; type: ADME; details: rat
# [14] = molecular target: Cytochrome P450 2C9 (Homo sapiens, UniProt P11712); experiment: Antagonistic activity against recombinant cytochrome P450 2C9; type: ADME; details: recombinant enzyme
# [15] = Oral bioavailability after dosing 2 mg/kg iv and 10 mg/kg po; type: ADME, organism-based; details: rat, in vivo
# [16] = Volume of distribution after dosing 2 mg/kg iv and 10 mg/kg po; type: ADME, organism-based; details: rat, in vivo
# [17] = Area under the curve after dosing 2 mg/kg iv and 10 mg/kg po; type: ADME, organism-based; details: rat, in vivo
# [18] = Plasma clearance after dosing 2 mg/kg iv and 10 mg/kg po; type: ADME, organism-based; details: rat
# Chain of Metabotropic glutamate receptor 5 (Rattus norvegicus) (P31424 21-1203 limits assumed): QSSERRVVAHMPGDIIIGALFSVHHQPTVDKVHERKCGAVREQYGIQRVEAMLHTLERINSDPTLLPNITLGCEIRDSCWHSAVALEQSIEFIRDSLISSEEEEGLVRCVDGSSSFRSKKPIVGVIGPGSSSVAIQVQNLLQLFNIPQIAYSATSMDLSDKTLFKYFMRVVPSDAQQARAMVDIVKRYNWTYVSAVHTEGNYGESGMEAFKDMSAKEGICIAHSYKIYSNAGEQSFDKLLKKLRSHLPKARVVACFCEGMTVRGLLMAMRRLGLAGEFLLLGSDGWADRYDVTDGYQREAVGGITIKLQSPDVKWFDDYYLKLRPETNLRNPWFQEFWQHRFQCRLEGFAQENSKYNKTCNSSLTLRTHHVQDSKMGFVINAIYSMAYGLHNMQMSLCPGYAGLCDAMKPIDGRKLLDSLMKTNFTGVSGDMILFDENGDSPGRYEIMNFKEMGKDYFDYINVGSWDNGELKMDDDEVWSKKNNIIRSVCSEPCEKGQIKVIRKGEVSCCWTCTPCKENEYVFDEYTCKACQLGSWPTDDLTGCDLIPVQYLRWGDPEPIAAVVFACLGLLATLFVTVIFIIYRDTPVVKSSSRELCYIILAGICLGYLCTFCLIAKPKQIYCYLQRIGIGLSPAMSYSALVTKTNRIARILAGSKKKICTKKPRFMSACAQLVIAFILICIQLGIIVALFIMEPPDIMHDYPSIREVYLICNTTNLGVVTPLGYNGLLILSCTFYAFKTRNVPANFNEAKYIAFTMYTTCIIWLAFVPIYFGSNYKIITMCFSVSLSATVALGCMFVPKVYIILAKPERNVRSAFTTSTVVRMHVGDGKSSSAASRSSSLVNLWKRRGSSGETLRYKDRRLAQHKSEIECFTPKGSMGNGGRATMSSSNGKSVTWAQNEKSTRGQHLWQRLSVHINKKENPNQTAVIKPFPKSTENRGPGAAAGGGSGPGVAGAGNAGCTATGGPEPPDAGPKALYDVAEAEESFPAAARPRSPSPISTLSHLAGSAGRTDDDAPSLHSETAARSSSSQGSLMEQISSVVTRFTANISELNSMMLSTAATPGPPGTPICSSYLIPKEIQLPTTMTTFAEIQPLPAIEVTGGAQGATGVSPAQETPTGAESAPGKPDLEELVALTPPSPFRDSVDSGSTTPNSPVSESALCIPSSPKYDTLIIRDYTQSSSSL
# Chain of Metabotropic glutamate receptor 5 (P31424 whole entry): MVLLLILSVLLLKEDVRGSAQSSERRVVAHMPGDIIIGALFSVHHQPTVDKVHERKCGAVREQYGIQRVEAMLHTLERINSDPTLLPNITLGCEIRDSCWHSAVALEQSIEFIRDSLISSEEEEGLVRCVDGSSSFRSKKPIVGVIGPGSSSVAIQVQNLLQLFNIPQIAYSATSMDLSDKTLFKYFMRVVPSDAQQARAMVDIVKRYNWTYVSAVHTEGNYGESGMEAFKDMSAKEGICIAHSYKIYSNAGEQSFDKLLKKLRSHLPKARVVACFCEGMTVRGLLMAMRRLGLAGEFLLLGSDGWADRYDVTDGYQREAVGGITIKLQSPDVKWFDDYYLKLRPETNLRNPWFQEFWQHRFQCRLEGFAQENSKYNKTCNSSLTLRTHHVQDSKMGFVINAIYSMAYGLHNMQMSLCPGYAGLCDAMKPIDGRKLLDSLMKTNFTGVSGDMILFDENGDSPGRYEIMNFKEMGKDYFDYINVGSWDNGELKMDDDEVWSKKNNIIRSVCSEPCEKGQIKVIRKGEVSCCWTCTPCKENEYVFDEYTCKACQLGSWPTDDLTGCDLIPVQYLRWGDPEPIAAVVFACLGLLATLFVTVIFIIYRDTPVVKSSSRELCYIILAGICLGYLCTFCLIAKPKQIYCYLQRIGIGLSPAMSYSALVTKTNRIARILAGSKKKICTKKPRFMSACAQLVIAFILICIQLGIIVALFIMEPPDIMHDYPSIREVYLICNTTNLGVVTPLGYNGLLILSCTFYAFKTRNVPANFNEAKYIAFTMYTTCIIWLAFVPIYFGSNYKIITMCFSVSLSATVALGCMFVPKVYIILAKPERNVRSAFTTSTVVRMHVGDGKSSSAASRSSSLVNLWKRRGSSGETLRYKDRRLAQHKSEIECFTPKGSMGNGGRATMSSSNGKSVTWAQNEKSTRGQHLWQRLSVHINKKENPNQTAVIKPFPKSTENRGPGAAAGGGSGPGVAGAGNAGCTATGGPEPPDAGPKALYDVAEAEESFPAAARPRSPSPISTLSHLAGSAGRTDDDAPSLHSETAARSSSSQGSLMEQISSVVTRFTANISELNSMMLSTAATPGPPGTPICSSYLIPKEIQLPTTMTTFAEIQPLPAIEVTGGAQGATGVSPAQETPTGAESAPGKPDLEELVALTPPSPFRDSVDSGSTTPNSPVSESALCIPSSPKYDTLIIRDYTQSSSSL
# Chain of Cytochrome P450 2D6 (P10635 whole entry): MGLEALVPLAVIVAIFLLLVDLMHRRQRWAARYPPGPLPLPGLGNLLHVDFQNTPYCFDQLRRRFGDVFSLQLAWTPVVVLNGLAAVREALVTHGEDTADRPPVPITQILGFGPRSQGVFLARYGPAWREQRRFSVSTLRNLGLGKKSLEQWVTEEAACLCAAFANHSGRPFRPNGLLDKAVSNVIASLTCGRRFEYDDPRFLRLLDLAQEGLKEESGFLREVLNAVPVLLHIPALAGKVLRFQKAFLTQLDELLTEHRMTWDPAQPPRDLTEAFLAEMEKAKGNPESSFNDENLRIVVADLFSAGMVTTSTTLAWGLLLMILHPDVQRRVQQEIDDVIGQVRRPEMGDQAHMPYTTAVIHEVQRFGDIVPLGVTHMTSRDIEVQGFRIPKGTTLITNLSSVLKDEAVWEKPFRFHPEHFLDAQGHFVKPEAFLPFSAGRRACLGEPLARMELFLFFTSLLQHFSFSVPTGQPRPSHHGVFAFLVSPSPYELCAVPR
# Chain of Cytochrome P450 3A4 (P08684 whole entry): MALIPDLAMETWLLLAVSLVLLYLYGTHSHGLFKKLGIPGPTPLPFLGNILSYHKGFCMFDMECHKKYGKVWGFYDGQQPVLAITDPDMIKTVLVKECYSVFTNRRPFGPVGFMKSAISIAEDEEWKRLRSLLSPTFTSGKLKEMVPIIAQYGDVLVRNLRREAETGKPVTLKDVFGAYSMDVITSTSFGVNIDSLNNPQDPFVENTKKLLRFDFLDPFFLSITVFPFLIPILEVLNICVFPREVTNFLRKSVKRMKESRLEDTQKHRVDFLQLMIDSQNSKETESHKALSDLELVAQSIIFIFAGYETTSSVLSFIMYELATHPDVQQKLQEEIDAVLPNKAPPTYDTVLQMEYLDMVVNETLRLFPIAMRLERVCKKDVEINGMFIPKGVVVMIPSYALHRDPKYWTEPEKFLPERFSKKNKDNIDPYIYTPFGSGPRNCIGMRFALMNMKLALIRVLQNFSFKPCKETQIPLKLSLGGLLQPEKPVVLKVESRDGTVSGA
# Chain of Cytochrome P450 2C9 (P11712 whole entry): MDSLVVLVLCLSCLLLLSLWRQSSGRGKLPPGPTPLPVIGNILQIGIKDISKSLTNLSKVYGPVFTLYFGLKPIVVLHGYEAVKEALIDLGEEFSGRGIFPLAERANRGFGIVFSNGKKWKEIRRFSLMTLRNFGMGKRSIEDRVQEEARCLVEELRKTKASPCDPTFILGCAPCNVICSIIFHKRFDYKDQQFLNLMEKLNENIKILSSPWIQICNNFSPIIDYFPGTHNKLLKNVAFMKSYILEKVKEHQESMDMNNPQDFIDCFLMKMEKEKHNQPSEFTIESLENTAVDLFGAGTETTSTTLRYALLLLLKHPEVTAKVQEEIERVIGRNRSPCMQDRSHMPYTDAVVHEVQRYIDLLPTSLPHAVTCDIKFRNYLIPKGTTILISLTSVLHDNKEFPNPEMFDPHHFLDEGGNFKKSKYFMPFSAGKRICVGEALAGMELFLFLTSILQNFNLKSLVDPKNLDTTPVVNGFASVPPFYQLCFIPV
# Chain of Cytochrome P450 2C19 (P33261 whole entry): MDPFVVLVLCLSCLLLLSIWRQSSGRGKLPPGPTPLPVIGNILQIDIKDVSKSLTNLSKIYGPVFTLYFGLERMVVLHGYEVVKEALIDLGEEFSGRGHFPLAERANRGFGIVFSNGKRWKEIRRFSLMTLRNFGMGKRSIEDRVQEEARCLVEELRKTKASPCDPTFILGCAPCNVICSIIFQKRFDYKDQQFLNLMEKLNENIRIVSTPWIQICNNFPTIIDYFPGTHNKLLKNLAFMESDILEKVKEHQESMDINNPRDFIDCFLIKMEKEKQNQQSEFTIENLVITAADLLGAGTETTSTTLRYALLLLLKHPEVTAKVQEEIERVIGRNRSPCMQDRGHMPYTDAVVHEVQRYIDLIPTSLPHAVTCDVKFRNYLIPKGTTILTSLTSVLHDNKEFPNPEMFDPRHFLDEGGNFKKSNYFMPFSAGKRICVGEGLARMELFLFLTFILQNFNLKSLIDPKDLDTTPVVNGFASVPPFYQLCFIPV
Ki [1],Activity [2],Occupancy [3],Activity [4],SMILES,also measured
> 2000 nM,> 2000 nM,–,–,N#Cc1cccc(-n2nnc(-c3c[nH]cn3)n2)c1,–
9.3 nM,47 nM,95%,> 14 µM,N#Cc1cc(F)cc(-n2nnc(-c3ncc[nH]3)n2)c1,–
3.5 nM,20 nM,29%,3.5 µM,Cc1ccncc1-c1cc(F)cc(-n2nnc(-c3ncc[nH]3)n2)c1,–
34 nM,77 nM,–,> 14 µM,N#Cc1cccc(-n2nnc(-c3ncc[nH]3)n2)c1,–
3.2 nM,9.7 nM,69%,5.1 µM,Fc1cc(Oc2cccnc2)cc(-n2nnc(-c3ncc[nH]3)n2)c1,–
1.8 nM,5.2 nM,95%,0.5 µM,Cc1ccncc1-c1cc(F)cc(-n2nnc(-c3ccccn3)n2)c1,–
183 nM,142 nM,–,1 µM,N#Cc1cccc(-n2nnc(-c3nccs3)n2)c1,–
19 nM,77 nM,97%,> 14 µM,Cc1c[nH]c(-c2nnn(-c3cc(F)cc(C#N)c3)n2)n1,Activity [5]: > 14 µM; bioavailability [6]: 22%; Vd [7]: 0.6 L/kg; AUC [8]: 3.4 µM·h; clearance [9]: 40 mL/min/kg; Activity [10]: > 14 µM; Activity [11]: > 14 µM; Concentration [12]: 8.1 µM; half-life [13]: 18 min; Activity [14]: > 14 µM
> 2000 nM,> 2000 nM,–,–,N#Cc1cccc(-n2nnc(-c3cc[nH]n3)n2)c1,–
–,3.9 nM,–,2.3 µM,N#Cc1cc(F)cc(-n2nnc(-c3ccccn3)n2)c1,Activity [5]: > 14 µM; bioavailability [15]: 24%; Vd [16]: 1.1 L/kg; AUC [17]: 9.6 µM·h; Activity [10]: > 14 µM; Activity [11]: > 14 µM; clearance [18]: 15 mL/min/kg; Concentration [12]: 9.7 µM; Activity [14]: > 14 µM
102 nM,73 nM,90%,3.8 µM,N#Cc1cccc(-n2nnc(-c3ccccn3)n2)c1,–
–,6.7 nM,90%,0.7 µM,Fc1cc(Oc2cccnc2)cc(-n2nnc(-c3ccccn3)n2)c1,–
157 nM,148 nM,–,1.7 µM,N#Cc1cccc(-n2nnc(-c3cscn3)n2)c1,–
